The target in this assay is C-Raf FL (full length CRAF with Y340E and Y341E activating mutations, co-expressed with h14-3-3 zeta) (Homo sapiens (Human), UniProt P04049, Y340E/Y341E). The experiment in a line: In vitro Raf activity determination, AlphaScreen p-MEK readout, c-Raf (C-Raf FL). It is filed as biochemical. The following applies: c-Raf approximately 4 nM, ATP 1 μM, pre-incubation 60 minutes, reaction 1 hour. The essentials:
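Phosphorylation of kinase-dead biotinylated MEK1 (~10 nM) by C-Raf FL (~4 nM) read by AlphaScreen luminescence with anti-phospho-MEK1/2 after EDTA stop. ATP was 1 μM, with a 1 h reaction at room temperature. Compounds were pre-incubated with enzyme and substrate for 60 min in Tris/MgCl2 buffer, pH 7.5.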

C-Raf FL (full length CRAF with Y340E and Y341E activating mutations, co-expressed with h14-3-3 zeta), sequence (P04049 whole entry Y340E/Y341E): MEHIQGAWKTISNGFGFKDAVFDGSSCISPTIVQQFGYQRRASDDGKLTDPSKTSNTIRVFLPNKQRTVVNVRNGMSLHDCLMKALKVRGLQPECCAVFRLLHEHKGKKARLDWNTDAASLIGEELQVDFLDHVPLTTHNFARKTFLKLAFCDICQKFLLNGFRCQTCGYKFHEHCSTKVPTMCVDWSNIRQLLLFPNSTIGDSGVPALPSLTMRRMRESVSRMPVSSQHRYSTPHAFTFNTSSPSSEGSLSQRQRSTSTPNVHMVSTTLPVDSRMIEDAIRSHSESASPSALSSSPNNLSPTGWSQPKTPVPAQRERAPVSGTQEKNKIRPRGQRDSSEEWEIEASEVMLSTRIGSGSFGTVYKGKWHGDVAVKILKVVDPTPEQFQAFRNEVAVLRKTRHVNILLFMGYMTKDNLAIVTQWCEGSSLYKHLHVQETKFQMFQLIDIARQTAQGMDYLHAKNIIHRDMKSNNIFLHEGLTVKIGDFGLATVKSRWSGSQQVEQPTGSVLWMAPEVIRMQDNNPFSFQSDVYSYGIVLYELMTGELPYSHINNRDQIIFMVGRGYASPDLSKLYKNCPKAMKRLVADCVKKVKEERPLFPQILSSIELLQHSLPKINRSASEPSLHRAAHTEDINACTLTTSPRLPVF
C-Raf FL (full length CRAF with Y340E and Y341E activating mutations, co-expressed with h14-3-3 zeta), sequence (P63104 whole entry partner): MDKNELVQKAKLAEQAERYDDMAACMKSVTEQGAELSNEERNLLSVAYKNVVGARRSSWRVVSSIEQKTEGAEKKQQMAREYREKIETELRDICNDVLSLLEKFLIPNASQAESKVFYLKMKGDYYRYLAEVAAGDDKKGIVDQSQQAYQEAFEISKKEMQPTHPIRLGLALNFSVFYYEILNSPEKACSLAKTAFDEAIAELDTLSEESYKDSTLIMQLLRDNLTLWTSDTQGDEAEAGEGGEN

Take `Cc1ccc(NC(=O)c2cncc(C(F)(F)F)c2)cc1-c1ccc2c(c1)N1CCOC[C@H]1[C@](F)(CF)C2` [Example 469, N-(3-((4aS,5S)-5-fluoro-5-(fluoromethyl)-1,2,4,4a,5,6-hexahydro-[1,4]oxazino[4,3-a]quinolin-9-yl)-4-methylphenyl)-5-(trifluorometh-yl)nicotinamide]: the IC50 came out at 1.8 nM.
The figure for `Cc1ncc(NC(=O)c2cccc(C(F)(F)F)c2)cc1-c1ccc2c(c1)N1CCOCC1CC2O` (racemic) [Example 9, (rac)-N-(5-(6-hydroxy-1,2,4,4a,5,6-hexahydro-[1,4]oxazino[4,3-a]quinolin-9-yl)-6-methylpyridin-3-yl)-3-(trifluoromethyl)benzamide] is 0.051 nM; for `Cc1ccc(NC(=O)c2ccnc(C(C)(C)F)c2)cc1-c1ccc2c(c1)N1CCOCC1CC2O` (racemic) [Example 17, (rac)-2-(2-fluoropropan-2-yl)-N-(3-(6-hydroxy-1,2,4,4a,5,6-hexahydro-[1,4]oxazino[4,3-a]quinolin-9-yl)-4-methylphenyl)isonicotinamide] it is 0.046 nM.
As to `Cc1ccc(NC(=O)c2ccnc(C(C)(F)F)c2)cc1-c1ccc2c(c1)N1CCOC[C@H]1[C@](F)(CO)C2` [Example 80, 2-(1,1-difluoroethyl)-N-(3-((4aS,5S)-5-fluoro-5-(hydroxymethyl)-1,2,4,4a,5,6-hexahydro-[1,4]oxazino[4,3-a]quinolin-9-yl)-4-methylphenyl)isonicotinamide], inhibition was half-maximal at 0.42 nM (IC50).
The same measure for `CCN1C(=O)C(C)(C)c2nncn2-c2cc(-c3cc(NC(=O)c4cccc(C(F)(F)F)c4)cnc3C)cnc21` [Example 240, N-(5-(6-ethyl-4,4-dimethyl-5-oxo-5,6-dihydro-4H-pyrido[2,3-b][1,2,4]triazolo[4,3-d][1,4]diazepin-9-yl)-6-methylpyridin-3-yl)-3-(trifluoromethyl) benzamide]: 10.6 nM; for `Cc1ncc(NC(=O)c2cccc(C(F)(F)F)c2)cc1-c1cnc2c(c1)N1CCOCC1C1(COC1)C2` (racemic) [Example 156, rac-N-(6-methyl-5-(2,4,4a,6-tetrahydro-1H-spiro[[1,4]oxazino[4,3-a][1,5]naphthyridine-5,3′-oxetan]-9-yl)pyridin-3-yl)-3-(trifluoromethyl)benzamide]: 0.048 nM; for `Cc1ccc(NC(=O)c2cnnc(C(F)(F)F)c2)cc1-c1cc(F)c2c(c1)N1CCOC[C@@H]1[C@@](F)(CO)C2` [Example 428, N-(3-((4aR,5R)-5,7-difluoro-5-(hydroxymethyl)-1,2,4,4a,5,6-hexahydro-[1,4]oxazino[4,3-a]quinolin-9-yl)-4-methylphenyl)-6-(trifluoromethyl)pyridazine-4-carboxamide]: 0.1 nM.
The figure for `Cc1ccc(NC(=O)c2ccnc(C(C)(F)F)c2)cc1-c1cnc2c(c1)N1CCOC[C@@H]1[C@@](C#N)(CF)C2` [Example 517, N-(3-((4aS,5S)-5-cyano-5-(fluoromethyl)-1,2,4,4a,5,6-hexahydro-[1,4]oxazino[4,3-a][1,5]naphthyridin-9-yl)-4-methyphenyl)-2-(1,1-difluoroethyl)iso-nicotinamide] is 0.1 nM; for `CCN1C(=O)C[C@H]2COCCN2c2cc(-c3cc(NC(=O)c4cnnc(C(F)(F)F)c4)ccc3C)cnc21` [Example 326, (S)-N-(3-(7-ethyl-6-oxo-2,4,4a,5,6,7-hexahydro-1H-[1,4]oxazino[4,3-d]pyrido[2,3-b][1,4]diazepin-10-yl)-4-methylphenyl)-6-(trifluoromethyl) pyridazine-4-carboxamide] it is 0.5 nM.
The same measure for `Cc1ccc(NC(=O)c2ccnc(C(F)(F)F)c2)cc1-c1cnc2c(c1)N1CCOC[C@H]1C(C)(C)[C@H]2N` [Example 527]: 0.9 nM; for `Cc1ccc(NC(=O)c2ccnc(C(C)(F)F)c2)cc1-c1ccc2c(c1)N1CCOC[C@H]1C[C@@H]2O` (single isomer, unassigned) [Example 19]: 0.019 nM; for `CCN1C(=O)[C@@H]2COCC[C@H]2c2cc(-c3cc(NC(=O)c4cccc(C(F)(F)F)c4)cnc3C)cnc21` [Example 312, N-(5-((4aS, 10bR)-6-ethyl-5-oxo-1,4,4a,5,6,10b-hexahydro-2H-pyrano[3,4-c][1,8]naphthyridin-9-yl)-6-methylpyridin-3-yl)-3-(trifluoromethyl) benzamide]: 0.1 nM.
In the case of `Cc1ccc(NC(=O)c2ccnc(C(F)(F)F)c2)cc1-c1ccc2c(c1)N1CCOCC1C(CO)(CO)C2` (racemic) [Example 49, (rac)-N-(3-(5,5-bis(hydroxymethyl)-1,2,4,4a,5,6-hexahydro-[1,4]oxazino[4,3-a]quinolin-9-yl)-4-methylphenyl)-2-(trifluoromethyl)isonicotinamide], the IC50 was found to be 0.021 nM.
The same measure for `CCN1C(=O)C[C@@H]2COCCN2c2cc(-c3cc(NC(=O)c4cnnc(C(F)(F)F)c4)ccc3C)cnc21` [Example 325, (R)-N-(3-(7-ethyl-6-oxo-2,4,4a,5,6,7-hexahydro-1H-[1,4]oxazino[4,3-d]pyrido[2,3-b][1,4]diazepin-10-yl)-4-methylphenyl)-6-(trifluoromethyl) pyridazine-4-carboxamide]: 0.1 nM; for `CNC(=O)C1Cc2ncc(-c3cc(NC(=O)c4ccnc(C(C)(F)F)c4)ccc3C)cc2N2CCOCC12` (racemic) [Example 173, rac-9-(5-(2-(1,1-difluoroethyl)isonicotinamido)-2-methylphenyl)-N-methyl-1,2,4,4a,5,6-hexahydro-[1,4]oxazino[4,3-a][1,5]naphthyridine-5-carboxamide]: 0.012 nM.
The figure for `Cc1ccc(NC(=O)c2ccnc(C(F)(F)F)c2)cc1-c1cnc2c(c1)N1CCOC[C@@H]1[C@@H](C(C)(C)O)C2` [Example 454] is 0.8 nM.
The same measure for `Cc1ccc(NC(=O)c2ccnc(C(F)(F)F)c2)cc1-c1cnc2c(c1)C1CCOCC1OC(=O)N2CCO` (stereo not drawn) [Example 330, N-(3-((4,11b-cis)-7-(2-hydroxyethyl)-6-oxo-2,4,4a,6,7,11b-hexahydro-1H-pyrano[4,3-f]pyrido[2,3-d][1,3]oxazepin-10-yl)-4-methylphenyl)-2-(trifluoromethyl) isonicotinamide]: 3.1 nM; for `CCN1C(=O)[C@@H]2COCC[C@@]2(C)c2cc(-c3cc(NC(=O)c4ccnc(C(F)(F)F)c4)ccc3C)cnc21` (relative stereo) [Example 341, N-(3-((4a,10b-trans)-6-ethyl-10b-methyl-5-oxo-2,4,4a,5,6,10b-hexahydro-1H-pyrano[3,4-c][1,8]naphthyridin-9-yl)-4-methylphenyl)-2-(trifluoromethyl)isonicotinamide]: 0.6 nM.
`Cc1ncc(NC(=O)c2cccc(C(F)(F)F)c2)cc1-c1cnc2c(c1)N1CCOC[C@H]1[C@@H](C(C)(C)O)C2` [Example 452, N-(5-((4aR,5S)-5-(2-hydroxypropan-2-yl)-1,2,4,4a,5,6-hexahydro-[1,4]oxazino[4,3-a][1,5]naphthyridin-9-yl)-6-methylpyridin-3-yl)-3-(trifluoro-methyl)benzamide] had an IC50 of 0.5 nM. The IC50 values of the last two compounds are within 1.5-fold of each other.
In the case of `CCN1C(=O)[C@H]2COCC[C@@H]2c2cc(-c3cc(NC(=O)c4cccc(C(F)(F)F)c4F)cnc3C)cnc21` [Example 255, N-(5-((4aR, 10bS)-6-ethyl-5-oxo-2,4,4a,5,6,10b-hexahydro-1H-pyrano[3,4-c][1,8]naphthyridin-9-yl)-6-methylpyridin-3-yl)-2-fluoro-3-(trifluoromethyl) benzamide], the IC50 amounted to 0.8 nM.
Compound `Cc1ccc(NC(=O)c2ccnc(C(F)(F)F)c2)cc1-c1cnc2c(c1)N1CCOC[C@H]1C(F)(F)[C@H]2O` [Example 167, N-(3-((4aS,6S)-5,5-difluoro-6-hydroxy-1,2,4,4a,5,6-hexahydro-[1,4]oxazino[4,3-a][1,5]naphthyridin-9-yl)-4-methylphenyl)-2-(trifluoromethyl)isonicotinamide] came in with an IC50 of 0.077 nM.
`Cc1ncc(NC(=O)c2cccc(C(F)(F)F)c2)cc1-c1cc2c(cc1F)C[C@](F)(CO)[C@H]1COCCN21` [Example 479, N-(5-((4aR,5R)-5,8-difluoro-5-(hydroxymethyl)-1,2,4,4a,5,6-hexahydro-[1,4]oxazino[4,3-a]quinolin-9-yl)-6-methylpyridin-3-yl)-3-(trifluoromethyl) benzamide]: inhibition was half-maximal at 0.4 nM (IC50).
Compound `Cc1ccc(NC(=O)c2ccnc(C(C)(F)F)c2)cc1-c1cc(F)c2c(c1)N1CCOC[C@@H]1[C@@](F)(CO)C2` [Example 425, N-(3-((4aR,5R)-5,7-difluoro-5-(hydroxymethyl)-1,2,4,4a,5,6-hexahydro-[1,4]oxazino[4,3-a]quinolin-9-yl)-4-methylphenyl)-2-(1,1-difluoroethyl)isonicotinamide] registered an IC50 of 0.4 nM.
The figure for `Cc1ncc(NC(=O)c2ccnc(C(C)(F)F)c2)cc1-c1ccc2c(c1)N1CCOC[C@H]1[C@](F)(CF)C2` [Example 467] is 1.9 nM; for `CCN1C[C@@H]2COCC[C@H]2c2cc(-c3cc(NC(=O)c4ccnc(C(C)(F)F)c4)ccc3C)cnc21` [Example 292, 2-(1,1-difluoroethyl)-N-(3-((4aR, 10bR)-6-ethyl-2,4,4a,5,6,10b-hexahydro-1H-pyrano[3,4-c][1,8]naphthyridin-9-yl)-4-methylphenyl) isonicotinamide] it is 0.1 nM; for `Cc1ccc(NC(=O)c2ccnc(C(C)(F)F)c2)cc1-c1ccc2c(c1)N1CCOC[C@@H]1[C@@](F)(CO)C2` [Example 370, 2-(1,1-difluoroethyl)-N-(3-((4aR,5R)-5-fluoro-5-(hydroxymethyl)-1,2,4,4a,5,6-hexahydro-[1,4]oxazino[4,3-a]quinolin-9-yl)-4-methylphenyl)isonicotinamide] it is 0.1 nM.

Values taken from patent US10377770B2 (Novartis AG, priority 2015, dated 2019).
